Assay: Human HepG2 cell viability assay in 384 well format
Assay type: toxicity, cell-based
Design: dose 125 nL, time 70.5 hour; cytotoxicity at 70.5 h: concentration not given beside the values
Settings: HepG2 cells, read-out: Inhibition

SMILES | cytotoxicity at 70.5 h [%]
CN(Cc1cnn(C)c1)Cc1nc(CCc2ccccc2)no1 | -4.56
CC(C(=O)N1CCc2sccc2C1)N1CCCN(C2CC2)CC1 (configuration not stated) | -10.7
Cc1nc2c(c(=O)n1C)CN(C(=O)C1CCCN(C(N)=O)C1)C2 (configuration not stated) | -4.13
CCNc1nc(N(C)C)nc(-n2cnc(SC)n2)n1 | -12
Cc1cc(CNC(=O)N2CCN(c3nc(C)c(C)s3)CC2)no1 | 7.38
O=C(NC[C@]1(O)CN(Cc2ccccc2F)C[C@H]1O)c1ccccn1 | -62.9
Cn1cc2ncn([C@H]3CCN(Cc4ccccc4)C3)c(=O)c2n1 | -6.58
Cn1ccnc1S(=O)(=O)C(C(=O)N1CCCCC1)c1ccccc1 (configuration not stated) | 23.2
O=C(NCc1ccco1)N1CCN(Cc2ccc3c(c2)CCO3)CC1 | -6.39
CN(Cc1ccccc1)CC1CC2(CO1)CN(Cc1nccs1)C2 (configuration not stated) | -6.93
Cc1c[nH]nc1C1CCCN(c2cnccn2)C1 (configuration not stated) | -2.27
CC(C)c1nnc2n1CC(CNCc1cccnc1)CC2 (configuration not stated) | -6.45
c1cc(-c2nnc(C3(c4ccc5c(c4)OCO5)CCOCC3)o2)ccn1 | -11.2
CC(C)Cn1c(=O)n(CCCn2cccn2)c2cc(C(=O)O)cnc21 | -10.8
Cc1csc(C(Cc2ccsc2)NC(=O)c2cc(=O)n(C)c(=O)n2C)n1 (configuration not stated) | -4.94
COCCN1CC2(CCOCC2)c2cc(NC(=O)C3CC=CC3)ccc21 | 28.4
Cc1ncsc1C(=O)NC1CCN(Cc2cccc3c2OCCO3)CC1 | -0.651
CC(C)(C)n1ncc2c(=O)n(CC(=O)NCCc3ccccc3)cnc21 | -13.5
CCN(Cc1ccc2c(c1)OCO2)Cc1nc(C)no1 | -20.4
CC(C)(C)S(=O)(=O)c1ccc(N2CCC(n3cccn3)CC2)cn1 | 6.49
O=C(CCOc1ccc(Cl)cc1)N1CCN(c2cnccn2)CC1 | -11.5

SMILES | cytotoxicity at 70.5 h [%]
O=C1CC[C@H]2CN(Cc3cccnc3)CC[C@H]2N1CCc1c[nH]cn1 | -1.83
CSc1ccc2cc(CN(C)CCO)c(=O)[nH]c2c1 | -16.3
COc1ccnc(N2CCN(C(=O)c3cccc(C#N)c3)CC2)n1 | -7.44
Cn1cc([C@@H]2CN(S(=O)(=O)c3ccccc3F)C[C@H]2N)c2ccncc21 | 19
CC(C)N(Cc1ccccc1)C(=O)NCCNC(=O)c1cccnc1 | -13.6
COc1cc(-n2cccc2)c(Cl)cc1C(N)=O | -3.56
CC(C)Nc1nc(N2CCCC2)nc2c1CN(S(C)(=O)=O)CC2 | -1.08
CNc1nc(C)c(C(=O)N2CCCCC2CN2CCCCCC2)s1 (configuration not stated) | -17.9
Cc1cc(-c2cc(S(=O)(=O)N3C[C@H](C4CC4)[C@@H](N)C3)c(C)s2)on1 | 19.4
CC(=O)NCc1nnc2n1CCN(c1nc(C)nc3sccc13)CC2 | -7.13
O=C(N[C@H]1CN[C@H]2CCCO[C@H]21)c1ccno1 | -4.14
CCc1cnc(CN2CCCC(c3cc(C)[nH]n3)C2)o1 (configuration not stated) | -8.59
CC(=O)Nc1nc2c(s1)CN(CC(=O)Nc1ccc(C)c(Cl)c1)CC2 | -14.4
Cc1n[nH]c(C)c1-c1nccnc1CC1CCCN(C)C1 (configuration not stated) | -7.42
Cc1ccc(O)c(CN2CCc3nc(-c4cccnc4)nc(O)c3C2)c1 | -5.78
CCc1noc(C)c1C(=O)N1CCCC1Cn1cc(C)cn1 (configuration not stated) | 25.2
CC(C)(C)c1nc(NS(=O)(=O)c2cccc(F)c2)no1 | -8.66
CN(Cc1cccnc1)C1COC2(CCN(Cc3nccs3)CC2)C1 (configuration not stated) | -11
Cc1ccccc1OC1CCN(CC(=O)Nc2cn(C)nc2C)CC1 | -1.78
COc1cc(C(C)=O)ccc1SCC(=O)Nc1ccccn1 | 21.7
CN(C)S(=O)(=O)N1C[C@H]2CCC[C@@]2(COCC2CC2)C1 | 16.4

SMILES | cytotoxicity at 70.5 h [%]
Cc1ccc(C(O)CNC(=O)NCc2csc(C)n2)cc1 (configuration not stated) | -2.4
CCS(=O)(=O)N1Cc2ccccc2CC1C(=O)OCc1c(C)noc1C (configuration not stated) | -7.84
Cn1cc(CN2CCCN(CCCc3ccccc3)CC2)cn1 | -15.4
Cc1cc(C(=O)N[C@H](C)c2onc(C)c2C(=O)O)c(C)o1 | -4.02
CN(C)CCNC(=O)c1ccccc1NC(=O)c1cc(Cl)ccc1Cl | 26.4
CN(Cc1ccc(Cl)s1)C1CCCN(c2cccnn2)C1 (configuration not stated) | -11.8
Cc1noc(C)c1CN(Cc1cccnc1)C1CN2CCC1CC2 (configuration not stated) | 25
COc1ccc(CCN2CCc3c(nc(C4CC4)n3C)C2)cc1 | -2.39
CCn1ncc(CN2CCC(O)(Cn3ccc4ncccc43)CC2)c1C | -1.63
CNc1cc(-c2ccncc2)ncn1 | 23.1
COc1ccc(CN(C)C(=O)c2nnc(CN(C)C)o2)cc1 | -3.32
Cc1csc(CNC(=O)NCC(O)c2ccc(F)cc2F)n1 (configuration not stated) | 5.96
Cc1ncsc1CNC(=O)N(Cc1ccccc1)CC(C)(C)O | -3.17
COc1c(C(=O)NCc2cnn(C)c2C)nnn1Cc1ccccc1 | 23
CCN(CC)C(=O)N1CCN(C2=NCC(C)S2)CC1 (configuration not stated) | -9.33
COc1cccc(CC(=O)N2CCC(O)(C(F)(F)F)C2)c1 (configuration not stated) | -4.06
CC(C)NC(=O)N[C@H]1C[C@@H](Cc2cc(CN3CCOCC3)on2)C1(C)C | -8.22
Cc1nc(C)c(C(=O)NCCNc2ncccc2C#N)s1 | -7.46
CN(Cc1ccsc1)C(=O)c1nc(N2CCCC2)ncc1Cl | -6.35
COc1ccc(C(=O)N(C)Cc2cccc(C#N)c2)c(OC)c1OC | -5.18
Cc1nn(C)c2c(=O)n(Cc3ccc(F)cc3)nnc12 | -7.56

SMILES | cytotoxicity at 70.5 h [%]
O=C(NCc1cccc2cccnc12)N1CCC(n2cncn2)CC1 | -1.7
CCc1cnc(N2CCOC(CCOC)C2)nc1 (configuration not stated) | -13.5
N#Cc1csc(CNCCOc2ncccc2Cl)c1 | 8.52
CCN(C)c1ncnc2c1CCN(Cc1ccncc1)CC2 | -0.527
COc1ccc(C2CCCN2S(=O)(=O)c2cc(F)ccc2F)cc1 (configuration not stated) | -6.85
Cc1ccc(Cl)cc1-n1nnnc1C1(N2CCCC2)CCCCC1 | -12.7
CC(=O)N[C@@H]1CN(C(=O)c2cc(C)oc2C)C[C@H]1c1ccc(C)o1 | 23.3
O=C(NCCNC1CCCCC1)c1cccs1 | -6.1
O=C(C1CCCC1)N1CC2(CCN(C3COC3)C2)Cc2ccccc21 (configuration not stated) | -10.8
Cc1cccnc1NC(=O)C1CCCN(c2cccc(C(F)(F)F)n2)C1 (configuration not stated) | -0.942
CCC(CC)NC(=O)c1ccc2nnc(C3CCN(C(C)=O)C3)n2c1 (configuration not stated) | 5.94
OCCCNc1cccc(COC2CCCCC2)c1 | 21
COCc1cnc2n1CCN(C(=O)C1=CCCC1)C2C (configuration not stated) | -14.6
O=C(Cn1ccc2ccc(Br)cc21)NC[C@@H]1CCCN2CCCC[C@H]12 | 41.4
CCCc1nc(CN2CCOC(Cn3cncn3)C2)cs1 (configuration not stated) | 22.5
Cc1cccc(Cl)c1NC(=O)Cn1cc(C(=O)O)ccc1=O | -2.75
COc1ccc(NC(=O)C(c2ccc(OC)cc2)N2CCOCC2)cc1 (configuration not stated) | 0.848
Cc1ccc(Oc2ncccc2C(=O)N(C)CCCN(C)C)c(C)c1 | -5.42
COc1ccc(COCC(O)CNC(=O)c2cc(C)no2)cc1 (configuration not stated) | -4.49
